Laboratory results: ChEMBL document CHEMBL1255447, “Efflux pumps, OprD porin, AmpC beta-lactamase, and multiresistance in Pseudomonas aeruginosa isolates from cystic fibrosis patients” (2010)
In brackets after ≈: the same amount, converted by molar mass.

How the values were obtained:
Pseudomonas aeruginosa [1] = experiment: Antimicrobial activity against Pseudomonas aeruginosa M1251 by Etest
Pseudomonas aeruginosa [2] = experiment: Antimicrobial activity against Pseudomonas aeruginosa isolate 12142c from fibrosis patient by Etest; assay type: functional
Pseudomonas aeruginosa [3] = experiment: Antimicrobial activity against Pseudomonas aeruginosa isolate 1726 from fibrosis patient by Etest; assay type: functional
Pseudomonas aeruginosa [4] = experiment: Antimicrobial activity against Pseudomonas aeruginosa isolate 15110c from fibrosis patient by Etest; assay type: functional
Pseudomonas aeruginosa [5] = experiment: Antimicrobial activity against Pseudomonas aeruginosa isolate 17145c from fibrosis patient by Etest; assay type: functional
Pseudomonas aeruginosa [6] = experiment: Antimicrobial activity against Pseudomonas aeruginosa isolate 1681c from fibrosis patient by Etest; assay type: functional
Pseudomonas aeruginosa [7] = experiment: Antimicrobial activity against Pseudomonas aeruginosa isolate 1333c from fibrosis patient by Etest; assay type: functional
Pseudomonas aeruginosa [8] = experiment: Antimicrobial activity against Pseudomonas aeruginosa isolate 1530c from fibrosis patient by Etest; assay type: functional
Pseudomonas aeruginosa [9] = experiment: Antimicrobial activity against Pseudomonas aeruginosa isolate 3149 from fibrosis patient by Etest; assay type: functional
Pseudomonas aeruginosa [10] = experiment: Antimicrobial activity against Pseudomonas aeruginosa isolate 1352c from fibrosis patient by Etest; assay type: functional
Pseudomonas aeruginosa [11] = experiment: Antimicrobial activity against Pseudomonas aeruginosa isolate 16008 from fibrosis patient by Etest; assay type: functional
Pseudomonas aeruginosa [12] = experiment: Antimicrobial activity against Pseudomonas aeruginosa isolate 15107 from fibrosis patient by Etest; assay type: functional
Pseudomonas aeruginosa [13] = experiment: microbe, parasite or virus in culture; details: isolate 13120
Description: Antimicrobial activity against Pseudomonas aeruginosa isolate 13120 from fibrosis patient by Etest

Pseudomonas aeruginosa [14] = experiment: Antimicrobial activity against Pseudomonas aeruginosa isolate 1712c from fibrosis patient by Etest; assay type: functional
Pseudomonas aeruginosa [15] = experiment: Antimicrobial activity against Pseudomonas aeruginosa isolate 1240 from fibrosis patient by Etest; assay type: functional
Pseudomonas aeruginosa [16] = experiment: Antimicrobial activity against Pseudomonas aeruginosa isolate 1665 from fibrosis patient by Etest; assay type: functional
Pseudomonas aeruginosa [17] = experiment: Antimicrobial activity against Pseudomonas aeruginosa isolate 12102 from fibrosis patient by Etest; assay type: functional
Pseudomonas aeruginosa [18] = experiment: Antimicrobial activity against Pseudomonas aeruginosa isolate 14169c from fibrosis patient by Etest; assay type: functional
Pseudomonas aeruginosa [19] = experiment: Antimicrobial activity against Pseudomonas aeruginosa isolate 1693c from fibrosis patient by Etest; assay type: functional
Pseudomonas aeruginosa [20] = experiment: Antimicrobial activity against Pseudomonas aeruginosa Z799/61 by Etest; assay type: functional
Pseudomonas aeruginosa [21] = experiment: Antimicrobial activity against Pseudomonas aeruginosa isolate 13167 from fibrosis patient by Etest; assay type: functional
Pseudomonas aeruginosa [22] = experiment: Antimicrobial activity against Pseudomonas aeruginosa isolate 1248c from fibrosis patient by Etest; assay type: functional
Pseudomonas aeruginosa [23] = experiment: Antimicrobial activity against Pseudomonas aeruginosa isolate 17112 from fibrosis patient by Etest; assay type: functional
Pseudomonas aeruginosa [24] = experiment: Antimicrobial activity against Pseudomonas aeruginosa R20 Etest; assay type: functional
Pseudomonas aeruginosa [25] = experiment: microbe, parasite or virus in culture; details: 2779-con
Description: Antimicrobial activity against Pseudomonas aeruginosa 2779-con by Etest

Pseudomonas aeruginosa [26] = experiment: Antimicrobial activity against Pseudomonas aeruginosa R70 Etest; assay type: functional
Pseudomonas aeruginosa [27] = experiment: Antimicrobial activity against Pseudomonas aeruginosa isolate 1529c from fibrosis patient by Etest; assay type: functional
Pseudomonas aeruginosa [28] = experiment: Antimicrobial activity against Pseudomonas aeruginosa 1405-con D2 by Etest; assay type: functional
Pseudomonas aeruginosa [29] = experiment: Antimicrobial activity against Pseudomonas aeruginosa isolate 1247c from fibrosis patient by Etest; assay type: functional
Pseudomonas aeruginosa [30] = experiment: Antimicrobial activity against Pseudomonas aeruginosa AHP Etest; assay type: functional
Pseudomonas aeruginosa [31] = experiment: Antimicrobial activity against Pseudomonas aeruginosa isolate 1495c from fibrosis patient by Etest; assay type: functional
Pseudomonas aeruginosa [32] = experiment: Antimicrobial activity against Pseudomonas aeruginosa isolate 1253 from fibrosis patient by Etest; assay type: functional

Compound	MIC (Pseudomonas aeruginosa [2]) [µg/mL]	MIC (Pseudomonas aeruginosa [3]) [µg/mL]	MIC (Pseudomonas aeruginosa [4]) [µg/mL]	MIC (Pseudomonas aeruginosa [5]) [µg/mL]	MIC (Pseudomonas aeruginosa [6]) [µg/mL]	MIC (Pseudomonas aeruginosa [8]) [µg/mL]	MIC (Pseudomonas aeruginosa [9]) [µg/mL]	MIC (Pseudomonas aeruginosa [10]) [µg/mL]	MIC (Pseudomonas aeruginosa [11]) [µg/mL]	MIC (Pseudomonas aeruginosa [12]) [µg/mL]	MIC (Pseudomonas aeruginosa [14]) [µg/mL]	MIC (Pseudomonas aeruginosa [15]) [µg/mL]	MIC (Pseudomonas aeruginosa [16]) [µg/mL]	MIC (Pseudomonas aeruginosa [18]) [µg/mL]	MIC (Pseudomonas aeruginosa [19]) [µg/mL]	MIC (Pseudomonas aeruginosa [20]) [µg/mL]	MIC (Pseudomonas aeruginosa [22]) [µg/mL]	MIC (Pseudomonas aeruginosa [29]) [µg/mL]	MIC (Pseudomonas aeruginosa [30]) [µg/mL]	MIC (Pseudomonas aeruginosa [31]) [µg/mL]	also measured
C[C@@H](O)[C@H]1C(=O)N2C(C(=O)O)=C(S[C@@H]3CN[C@H](C(=O)N(C)C)C3)[C@H](C)[C@H]12 [MEROPENEM]	32 (≈ 83.4 µM)	0.12 (≈ 0.313 µM)	16 (≈ 41.7 µM)	4 (≈ 10.4 µM)	8 (≈ 20.9 µM)	0.5 (≈ 1.3 µM)	8 (≈ 20.9 µM)	16 (≈ 41.7 µM)	4 (≈ 10.4 µM)	2 (≈ 5.22 µM)	32 (≈ 83.4 µM)	8 (≈ 20.9 µM)	> 32	4 (≈ 10.4 µM)	2 (≈ 5.22 µM)	≤ 0.06	16 (≈ 41.7 µM)	4 (≈ 10.4 µM)	0.25 (≈ 0.652 µM)	> 32	MIC (Pseudomonas aeruginosa [1]): 8 µg/mL (≈ 20.9 µM); MIC (Pseudomonas aeruginosa [7]): 16 µg/mL (≈ 41.7 µM); MIC (Pseudomonas aeruginosa [13]): 32 µg/mL (≈ 83.4 µM); MIC (Pseudomonas aeruginosa [17]): 16 µg/mL (≈ 41.7 µM); MIC (Pseudomonas aeruginosa [21]): 4 µg/mL (≈ 10.4 µM); MIC (Pseudomonas aeruginosa [23]): > 32 µg/mL; MIC (Pseudomonas aeruginosa [24]): 0.5 µg/mL (≈ 1.3 µM); MIC (Pseudomonas aeruginosa [25]): 1 µg/mL (≈ 2.61 µM); MIC (Pseudomonas aeruginosa [26]): > 32 µg/mL; MIC (Pseudomonas aeruginosa [27]): 4 µg/mL (≈ 10.4 µM); MIC (Pseudomonas aeruginosa [28]): 8 µg/mL (≈ 20.9 µM); MIC (Pseudomonas aeruginosa [32]): 32 µg/mL (≈ 83.4 µM)
C[C@H]1[C@H](NC(=O)/C(=N\OC(C)(C)C(=O)O)c2csc(N)n2)C(=O)N1S(=O)(=O)O [AZTREONAM]	> 64	0.5 (≈ 1.15 µM)	> 64	0.5 (≈ 1.15 µM)	32 (≈ 73.5 µM)	2 (≈ 4.59 µM)	64 (≈ 147 µM)	32 (≈ 73.5 µM)	0.5 (≈ 1.15 µM)	2 (≈ 4.59 µM)	> 64	4 (≈ 9.19 µM)	> 64	–	1 (≈ 2.3 µM)	≤ 0.12	> 64	4 (≈ 9.19 µM)	0.5 (≈ 1.15 µM)	> 64	MIC (Pseudomonas aeruginosa [1]): 32 µg/mL (≈ 73.5 µM); MIC (Pseudomonas aeruginosa [13]): 16 µg/mL (≈ 36.7 µM); MIC (Pseudomonas aeruginosa [21]): 16 µg/mL (≈ 36.7 µM); MIC (Pseudomonas aeruginosa [23]): > 64 µg/mL; MIC (Pseudomonas aeruginosa [25]): 32 µg/mL (≈ 73.5 µM); MIC (Pseudomonas aeruginosa [27]): 0.5 µg/mL (≈ 1.15 µM); MIC (Pseudomonas aeruginosa [32]): 16 µg/mL (≈ 36.7 µM)
O=C(O)c1cn(C2CC2)c2cc(N3CCNCC3)c(F)cc2c1=O [CIPROFLOXACIN]	4 (≈ 12.1 µM)	–	–	4 (≈ 12.1 µM)	–	–	> 8	–	4 (≈ 12.1 µM)	–	4 (≈ 12.1 µM)	–	4 (≈ 12.1 µM)	1 (≈ 3.02 µM)	1 (≈ 3.02 µM)	≤ 0.12	4 (≈ 12.1 µM)	4 (≈ 12.1 µM)	≤ 0.12	4 (≈ 12.1 µM)	MIC (Pseudomonas aeruginosa [24]): ≤ 0.12 µg/mL; MIC (Pseudomonas aeruginosa [25]): ≤ 0.12 µg/mL
GENTAMICIN	> 32	2	> 32	32	32	32	> 32	> 32	16	> 32	> 32	2	16	32	16	< 0.12	> 32	> 32	< 0.12	> 64	MIC (Pseudomonas aeruginosa [7]): > 32 µg/mL; MIC (Pseudomonas aeruginosa [17]): 4 µg/mL; MIC (Pseudomonas aeruginosa [21]): 32 µg/mL; MIC (Pseudomonas aeruginosa [23]): 1 µg/mL; MIC (Pseudomonas aeruginosa [24]): < 0.25 µg/mL; MIC (Pseudomonas aeruginosa [26]): 1 µg/mL; MIC (Pseudomonas aeruginosa [27]): > 32 µg/mL; MIC (Pseudomonas aeruginosa [28]): 2 µg/mL; MIC (Pseudomonas aeruginosa [32]): 16 µg/mL
NCC[C@H](O)C(=O)N[C@@H]1C[C@H](N)[C@@H](O[C@H]2O[C@H](CN)[C@@H](O)[C@H](O)[C@H]2O)[C@H](O)[C@H]1O[C@H]1O[C@H](CO)[C@@H](O)[C@H](N)[C@H]1O [AMIKACIN]	> 64	2 (≈ 3.42 µM)	> 64	64 (≈ 109 µM)	64 (≈ 109 µM)	32 (≈ 54.6 µM)	> 64	> 64	32 (≈ 54.6 µM)	> 64	> 64	4 (≈ 6.83 µM)	> 64	32 (≈ 54.6 µM)	1 (≈ 1.71 µM)	1 (≈ 1.71 µM)	> 64	> 64	≤ 0.5	> 64	MIC (Pseudomonas aeruginosa [1]): 1 µg/mL (≈ 1.71 µM); MIC (Pseudomonas aeruginosa [7]): 64 µg/mL (≈ 109 µM); MIC (Pseudomonas aeruginosa [13]): 1 µg/mL (≈ 1.71 µM); MIC (Pseudomonas aeruginosa [17]): 4 µg/mL (≈ 6.83 µM); MIC (Pseudomonas aeruginosa [21]): 64 µg/mL (≈ 109 µM); MIC (Pseudomonas aeruginosa [23]): 1 µg/mL (≈ 1.71 µM); MIC (Pseudomonas aeruginosa [24]): ≤ 0.5 µg/mL; MIC (Pseudomonas aeruginosa [25]): 1 µg/mL (≈ 1.71 µM); MIC (Pseudomonas aeruginosa [26]): 1 µg/mL (≈ 1.71 µM); MIC (Pseudomonas aeruginosa [27]): 64 µg/mL (≈ 109 µM); MIC (Pseudomonas aeruginosa [28]): 4 µg/mL (≈ 6.83 µM); MIC (Pseudomonas aeruginosa [32]): 32 µg/mL (≈ 54.6 µM)
